Measurements published in patent EP0092073A1, “Magnesium salt of chenodeoxycholic acid and ursodeoxycholic acid, the process for its preparation, and therapeutic compositions which contain it as active principle” (SCHWARZ ITALIA S.p.A., priority 1982, dated 1983).
Where two headings read alike, the source gives them in different places.

Experiments:
[1] = Acute lethality and toxicity, oral administration (gastric probe); type: in vivo, Mus musculus; design: key to Toxic symptomatology Type: NN = no symptomatology; D = depression; details: in vivo, po; for mortality at 24 h / mortality at 168 h: oral; for mortality at 24 h: read-out: % mortality at following times after administration 24 h; for mortality at 168 h: read-out: % mortality at following times after administration 7 days; for LD50 at 168 h: probit method, read-out: LD50 (mg/kg with reliability limits) 7 days after treatment
Experimental: (§1) Unless otherwise specified, the research was carried out using: a) Mg-UCD capsules as such; b) the powdered contents of Mg-UCD capsules; CDCA (chenodeoxycholic acid) and UDCA (ursodeoxycholic acid) as pure substance which in all cases was partly dissolved and partly suspended under warm conditions (T = 30°C) in 10% gum arabic mucilage (so as to administer 10-40 ml of liquid per kg orally). In certain cases, namely in the experiments involving parenteral administration, the active principle of Mg-UCD, the chenodeoxycholic acid and ursodeoxycholic acid were dissolved in distilled water of slightly alkaline pH (5-10 ml/kg).
(§2) The generally acute lethality, toxicity and tolerability were determined by oral administration of the Mg-UCD (by gastric probe) in the Mus musculus, rat and dog. Animals of both sexes were used, none of which were pregnant. They were fasted for about 12 hours before treatment (but allowing them free access to water). The investigations were carried out using the Mg-UCD in powder form. Comparative investigations were carried out on the rat and Mus musculus using the active principle by endoperitoneal administration, and chenodeoxycholic acid and ursodeoxycholic acid by oral administration (using a gastric probe). Each dose was administered to 20 rats or Mus musculus (10 male and 10 female) and to eight dogs (4 male and 4 female). The animals were observed attentively during the 7 days following administration, and any lethality, toxic symptoms, disturbances, functional variations determinable with the eye, behaviour etc. were noted.
(§3) The LD50 was determined 7 days after administration using the probit method.

[2] = system: Mus musculus; test: as above; type: in vivo; design: key to Toxic symptomatology Type: NN = no symptomatology; D = depression; details: oral
Experimental: as §1, §2, §3

[3] = system: rat; test: as above; type: in vivo; design: key to Toxic symptomatology Type: NN = no symptomatology; D = depression; details: oral
Experimental: as §1, §2, §3

[4] = system: hampsters; test: Action on the formation of cholesterol calculi in the gall-bladder (cholesterol-enriched diet, 80 days); type: in vivo; details: female hampsters; for % animals with calculi / % animals with crystals: cholesterol-enriched diet
Experimental: (§4) The investigations were carried out on hampsters (of female sex, but excluding those in a state of pregnancy) having an initial weight of 75-90 g. They were treated for 80 days with oral administration (by gastric probe) of MG-UCD (10-20 mg/kg/day), chenodeoxycholic acid (10-20 mg/kg/day) or ursodeoxycholic acid (10-20 mg/kg/day) (Tables 4 and 5). The animals were maintained for 80 consecutive days on a Nossan feed diet for rats, enriched with cholesterol (2 mg/g of food).
(§5) Each experimental group consisted of 10 units. After 80 days, the animals were narcotised with ethyl ether, and the bile was withdrawn, together with the calculi and crystals from the gall-bladder as described by Pearlman and coll. in Gastroenterology 77, 634 (1979).

[5] = system: hampsters; test: Bile lipid and bile acid contents of the bile (cholesterol-enriched diet, 80 days); type: in vivo
Experimental: as §4, §5
The bile acid, phospholipid, cholesterol, cholic acid, chenodeoxycholic acid, ursodeoxycholic acid, DCA (deoxycholic acid) and LCA (lithocholic acid) contents were evaluated in the bile by the methods described by Pearlman and coll. (see above).

[6] = system: patients; test: Controlled study in comparison with the free acids; tolerability in patients; type: in vivo; details: patients
[7] = mouse, 2000 mg/kg, M. musculus F, 2000 mg/kg
[8] = mouse, 2000 mg/kg, M. musculus M, 2000 mg/kg
[9] = mouse, 4000 mg/kg, M. musculus F, 4000 mg/kg
[10] = mouse, 4000 mg/kg, M. musculus M, 4000 mg/kg
[11] = mouse, 8000 mg/kg, M. musculus F, 8000 mg/kg
[12] = mouse, 8000 mg/kg, M. musculus M, 8000 mg/kg
[13] = rat, 2000 mg/kg, Rat F, 2000 mg/kg
[14] = rat, 2000 mg/kg, Rat M, 2000 mg/kg
[15] = rat, 4000 mg/kg, Rat F, 4000 mg/kg
[16] = rat, 4000 mg/kg, Rat M, 4000 mg/kg
[17] = rat, 8000 mg/kg, Rat F, 8000 mg/kg
[18] = rat, 8000 mg/kg, Rat M, 8000 mg/kg

**Q.** Which results are given for C[C@H](CCC(=O)O)[C@H]1CC[C@H]2[C@@H]3[C@H](O)C[C@@H]4C[C@H](O)CC[C@]4(C)[C@H]3CC[C@]12C [Chenodeoxycholic acid, 17β-(1-methyl-3-carboxypropyl)-ethiocholane-3α, 7α-diol]?
**A.** mortality at 24 h [1, 7]: 0%; mortality at 168 h [1, 7]: 0%; mortality at 24 h [1, 8]: 0%; mortality at 168 h [1, 8]: 0%; mortality at 24 h [1, 9]: 30%; mortality at 168 h [1, 9]: 30%; mortality at 24 h [1, 10]: 30%; mortality at 168 h [1, 10]: 30%; mortality at 24 h [1, 11]: 80%; mortality at 168 h [1, 11]: 80%; mortality at 24 h [1, 12]: 80%; mortality at 168 h [1, 12]: 80%; LD50 at 168 h ([1]; mouse, M. musculus F): 5280 mg/kg; LD50 at 168 h ([1]; mouse, M. musculus M): 5280 mg/kg; mortality at 24 h [1, 13]: 0%; mortality at 168 h [1, 13]: 0%; mortality at 24 h [1, 14]: 0%; mortality at 168 h [1, 14]: 0%; mortality at 24 h [1, 15]: 30%; mortality at 168 h [1, 15]: 30%; mortality at 24 h [1, 16]: 40%; mortality at 168 h [1, 16]: 40%; mortality at 24 h [1, 17]: 90%; mortality at 168 h [1, 17]: 90%; mortality at 24 h [1, 18]: 80%; mortality at 168 h [1, 18]: 80%; LD50 at 168 h ([1]; rat, Rat F): 4890 mg/kg; LD50 at 168 h ([1]; rat, Rat M): 4010 mg/kg; Toxic symptomatology Latency ([2]; M. musculus F, 2000 mg/kg): 5-10 min; Toxic symptomatology Type ([2]; M. musculus F, 2000 mg/kg): D; Toxic symptomatology Latency ([2]; M. musculus F, 4000 mg/kg): 5-10 min; Toxic symptomatology Type ([2]; M. musculus F, 4000 mg/kg): D; Toxic symptomatology Latency ([2]; M. musculus F, 8000 mg/kg): 5-10 min; Toxic symptomatology Type ([2]; M. musculus F, 8000 mg/kg): D; Toxic symptomatology Latency ([2]; M. musculus M, 2000 mg/kg): 5-10 min; Toxic symptomatology Type ([2]; M. musculus M, 2000 mg/kg): D; Toxic symptomatology Latency ([2]; M. musculus M, 4000 mg/kg): 5-10 min; Toxic symptomatology Type ([2]; M. musculus M, 4000 mg/kg): D; Toxic symptomatology Latency ([2]; M. musculus M, 8000 mg/kg): 5-10 min; Toxic symptomatology Type ([2]; M. musculus M, 8000 mg/kg): D; Toxic symptomatology Latency ([3]; Rat F, 2000 mg/kg): 5-10 min; Toxic symptomatology Type ([3]; Rat F, 2000 mg/kg): D; Toxic symptomatology Latency ([3]; Rat F, 4000 mg/kg): 5-10 min; Toxic symptomatology Type ([3]; Rat F, 4000 mg/kg): D; Toxic symptomatology Latency ([3]; Rat F, 8000 mg/kg): 5-10 min; Toxic symptomatology Type ([3]; Rat F, 8000 mg/kg): D; Toxic symptomatology Latency ([3]; Rat M, 2000 mg/kg): 5-10 min; Toxic symptomatology Type ([3]; Rat M, 2000 mg/kg): D; Toxic symptomatology Latency ([3]; Rat M, 4000 mg/kg): 5-10 min; Toxic symptomatology Type ([3]; Rat M, 4000 mg/kg): D; Toxic symptomatology Latency ([3]; Rat M, 8000 mg/kg): 5-10 min; Toxic symptomatology Type ([3]; Rat M, 8000 mg/kg): D; % animals with calculi ([4]; 10 mg/kg/day oral for 80 days): 50%; % animals with crystals ([4]; 10 mg/kg/day oral for 80 days): 30%; % animals with calculi ([4]; 20 mg/kg/day oral for 80 days): 0%; % animals with crystals ([4]; 20 mg/kg/day oral for 80 days): 0%; Body weight (g ± s.e.) after following days 80 ([4]; day 80, oral, 10 mg/kg/day): 148 ± 9 g; Bile acids (expressed as molar % ± s.e.) Cheno-deoxycholic acid ([5]; 10 mg/kg/day oral for 80 days): 42.1 ± 3.6 molar %; Bile acids (expressed as molar % ± s.e.) Cholic acid ([5]; 10 mg/kg/day oral for 80 days): 29.6 ± 2.6 molar %; Bile acids (expressed as molar % ± s.e.) DCA ([5]; 10 mg/kg/day oral for 80 days): 12.7 ± 0.6 molar %; Bile acids (expressed as molar % ± s.e.) LCA ([5]; 10 mg/kg/day oral for 80 days): 3.2 ± 0.1 molar %; Bile acids (expressed as molar % ± s.e.) Urso-deoxycholic acid ([5]; 10 mg/kg/day oral for 80 days): 6.6 ± 0.4 molar %; Bile lipids (expressed as molar % ± s.e.) Bile acids ([5]; 10 mg/kg/day oral for 80 days): 79.5 ± 5.6 molar %; Bile lipids (expressed as molar % ± s.e.) Cholesterol ([5]; 10 mg/kg/day oral for 80 days): 7.2 ± 0.2 molar %; Bile lipids (expressed as molar % ± s.e.) Phospho-lipids ([5]; 10 mg/kg/day oral for 80 days): 16.0 ± 1.8 molar %; Bile acids (expressed as molar % ± s.e.) Cheno-deoxycholic acid ([5]; 20 mg/kg/day oral for 80 days): 66.0 ± 4.7 molar %; Bile acids (expressed as molar % ± s.e.) Cholic acid ([5]; 20 mg/kg/day oral for 80 days): 18.7 ± 2.1 molar %; Bile acids (expressed as molar % ± s.e.) DCA ([5]; 20 mg/kg/day oral for 80 days): 10.4 ± 0.2 molar %; Bile acids (expressed as molar % ± s.e.) LCA ([5]; 20 mg/kg/day oral for 80 days): 3.4 ± 0.3 molar %; Bile acids (expressed as molar % ± s.e.) Urso-deoxycholic acid ([5]; 20 mg/kg/day oral for 80 days): 7.8 ± 0.3 molar %; Bile lipids (expressed as molar % ± s.e.) Bile acids ([5]; 20 mg/kg/day oral for 80 days): 80.2 ± 3.8 molar %; Bile lipids (expressed as molar % ± s.e.) Cholesterol ([5]; 20 mg/kg/day oral for 80 days): 5.9 ± 0.3 molar %; Bile lipids (expressed as molar % ± s.e.) Phospho-lipids ([5]; 20 mg/kg/day oral for 80 days): 15.8 ± 1.3 molar %; side effects [6]: diarrhoea, and, in certain cases, transaminase increase
